Assay [1] concerns the target PI3-kinase p110-alpha/p85-alpha (Homo sapiens, UniProt P42336). In words: Inhibition of full length recombinant human N-terminal His-tagged PI3K p110alpha/p85alpha expressed in baculovirus using PIP2 as substrate after 1 hr by kinase-glo luminescence assay. (Kinase-Glo measures the ATP left after a reaction by luminescence.)
Assay [2] deals with Serine/threonine-protein kinase mTOR (Homo sapiens, UniProt P42345). In words: Inhibition of recombinant human N-terminal FLAG-tagged mTOR (1362 to end residues) expressed in baculovirus infected Sf21 insect cells assessed as reduction in ULight-4E-BP1 phosphorylation after 30 mins by lance ultra assay.
For assay [3], the system named is SK-OV-3. In words: Antitumor activity against human SKOV3 cells xenografted in BALB/c nude mouse assessed as tumor growth inhibition at 30 mg/kg/day, po for 24 days measured every 3 days during compound dosing relative to control. Type of assay: functional. A general note: Xenograft models place foreign cells or tissue in a host animal.
Assay [4] deals with U-87 MG. The assay can be described thus: Antitumor activity against human U87MG cells xenografted in BALB/c nude mouse assessed as tumor growth inhibition at 20 mg/kg/day, po for 18 days measured every 3 days during compound dosing relative to control. Conditions: U-87MG ATCC. The assay is classed as functional.
For a further assay, the system named is PC-3. The assay can be described thus: cells. Conditions: Homo sapiens, PC-3, 72 h.
In the next assay the test system is LNCaP. The assay can be described thus: cells. To be noted: Homo sapiens, 72 h.
Assay [5] deals with U-87 MG. In words: cells. To be noted: Homo sapiens, 72 h.
Assay [6] relates to SK-OV-3. In words: cells. To be noted: Homo sapiens, SK-OV-3, 72 h.
Assay [7] has as its target Phosphatidylinositol 4,5-bisphosphate 3-kinase catalytic subunit gamma isoform (Homo sapiens, UniProt P48736). In words: Inhibition of recombinant human His-tagged PI3K p110gamma expressed in baculovirus using PIP2 as substrate after 1 hr by kinase-glo luminescence assay.
In assay [8] the target is Phosphatidylinositol 4,5-bisphosphate 3-kinase catalytic subunit beta isoform (Homo sapiens, UniProt P42338). The assay can be described thus: Inhibition of PI3Kbeta (unknown origin) using PIP2 as substrate after 1 hr by ADP-Glo luminescence assay.
Assay [9] addresses PI3-kinase p110-delta/p85-alpha (Homo sapiens, UniProt O00329). The assay can be described thus: Inhibition of recombinant full length human N-terminal His6-tagged PI3K p110delta/p85alpha expressed in baculovirus infected Sf21 cells using PIP2 as substrate after 2 hrs by kinase-glo luminescence assay.

The source made the active and inactive calls. No cut-off for these calls is given here. Bounds are passed on as bounds.

Sequence of PI3-kinase p110-alpha/p85-alpha (P27986 whole entry): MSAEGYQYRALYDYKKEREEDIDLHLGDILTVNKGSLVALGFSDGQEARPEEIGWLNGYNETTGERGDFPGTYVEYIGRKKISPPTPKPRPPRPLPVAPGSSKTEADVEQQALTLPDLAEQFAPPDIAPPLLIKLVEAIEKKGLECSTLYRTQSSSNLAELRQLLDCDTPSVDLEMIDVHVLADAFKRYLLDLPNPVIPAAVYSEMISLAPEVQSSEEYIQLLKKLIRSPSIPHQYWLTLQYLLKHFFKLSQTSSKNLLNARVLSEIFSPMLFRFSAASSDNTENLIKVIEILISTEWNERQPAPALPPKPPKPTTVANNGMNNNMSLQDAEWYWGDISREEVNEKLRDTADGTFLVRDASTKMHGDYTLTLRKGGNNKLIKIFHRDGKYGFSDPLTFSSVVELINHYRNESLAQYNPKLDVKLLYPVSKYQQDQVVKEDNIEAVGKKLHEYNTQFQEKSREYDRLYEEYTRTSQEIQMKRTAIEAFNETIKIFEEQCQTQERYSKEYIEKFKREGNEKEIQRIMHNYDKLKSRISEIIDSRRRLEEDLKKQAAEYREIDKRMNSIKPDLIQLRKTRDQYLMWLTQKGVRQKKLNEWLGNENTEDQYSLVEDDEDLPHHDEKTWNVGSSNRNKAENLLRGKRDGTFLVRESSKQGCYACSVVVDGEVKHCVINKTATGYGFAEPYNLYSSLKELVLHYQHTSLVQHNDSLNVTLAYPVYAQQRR
Sequence of PI3-kinase p110-alpha/p85-alpha (P42336 whole entry): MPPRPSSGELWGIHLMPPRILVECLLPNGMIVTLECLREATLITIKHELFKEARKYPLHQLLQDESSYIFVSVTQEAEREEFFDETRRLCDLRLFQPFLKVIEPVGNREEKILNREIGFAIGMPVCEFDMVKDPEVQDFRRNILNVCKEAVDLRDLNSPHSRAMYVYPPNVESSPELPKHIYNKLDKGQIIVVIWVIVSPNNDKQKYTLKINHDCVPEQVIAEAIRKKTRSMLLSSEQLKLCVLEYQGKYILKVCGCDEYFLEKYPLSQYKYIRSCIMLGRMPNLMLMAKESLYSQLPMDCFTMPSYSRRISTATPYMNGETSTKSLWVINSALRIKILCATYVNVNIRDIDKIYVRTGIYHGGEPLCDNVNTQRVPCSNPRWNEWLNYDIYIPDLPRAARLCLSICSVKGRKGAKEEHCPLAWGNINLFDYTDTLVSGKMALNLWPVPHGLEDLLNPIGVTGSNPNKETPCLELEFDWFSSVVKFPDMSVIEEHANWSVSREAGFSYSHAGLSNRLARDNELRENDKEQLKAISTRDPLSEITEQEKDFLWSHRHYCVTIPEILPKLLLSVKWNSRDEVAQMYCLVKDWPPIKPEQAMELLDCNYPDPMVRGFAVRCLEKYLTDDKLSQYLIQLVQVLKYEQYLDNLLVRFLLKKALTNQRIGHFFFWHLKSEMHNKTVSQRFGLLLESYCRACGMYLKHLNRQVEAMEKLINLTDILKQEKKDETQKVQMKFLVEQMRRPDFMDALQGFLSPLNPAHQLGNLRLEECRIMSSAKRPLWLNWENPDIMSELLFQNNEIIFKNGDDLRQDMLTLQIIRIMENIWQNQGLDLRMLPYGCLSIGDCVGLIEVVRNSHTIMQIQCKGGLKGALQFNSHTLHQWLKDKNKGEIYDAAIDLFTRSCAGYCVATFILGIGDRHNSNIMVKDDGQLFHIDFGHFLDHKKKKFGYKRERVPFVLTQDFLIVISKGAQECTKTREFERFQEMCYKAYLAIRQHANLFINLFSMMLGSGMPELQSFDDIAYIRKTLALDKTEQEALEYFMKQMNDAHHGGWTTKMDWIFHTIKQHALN
Sequence of PI3-kinase p110-delta/p85-alpha (P27986 whole entry): as the sequence (P27986 whole entry) above
Sequence of PI3-kinase p110-delta/p85-alpha (O00329 whole entry): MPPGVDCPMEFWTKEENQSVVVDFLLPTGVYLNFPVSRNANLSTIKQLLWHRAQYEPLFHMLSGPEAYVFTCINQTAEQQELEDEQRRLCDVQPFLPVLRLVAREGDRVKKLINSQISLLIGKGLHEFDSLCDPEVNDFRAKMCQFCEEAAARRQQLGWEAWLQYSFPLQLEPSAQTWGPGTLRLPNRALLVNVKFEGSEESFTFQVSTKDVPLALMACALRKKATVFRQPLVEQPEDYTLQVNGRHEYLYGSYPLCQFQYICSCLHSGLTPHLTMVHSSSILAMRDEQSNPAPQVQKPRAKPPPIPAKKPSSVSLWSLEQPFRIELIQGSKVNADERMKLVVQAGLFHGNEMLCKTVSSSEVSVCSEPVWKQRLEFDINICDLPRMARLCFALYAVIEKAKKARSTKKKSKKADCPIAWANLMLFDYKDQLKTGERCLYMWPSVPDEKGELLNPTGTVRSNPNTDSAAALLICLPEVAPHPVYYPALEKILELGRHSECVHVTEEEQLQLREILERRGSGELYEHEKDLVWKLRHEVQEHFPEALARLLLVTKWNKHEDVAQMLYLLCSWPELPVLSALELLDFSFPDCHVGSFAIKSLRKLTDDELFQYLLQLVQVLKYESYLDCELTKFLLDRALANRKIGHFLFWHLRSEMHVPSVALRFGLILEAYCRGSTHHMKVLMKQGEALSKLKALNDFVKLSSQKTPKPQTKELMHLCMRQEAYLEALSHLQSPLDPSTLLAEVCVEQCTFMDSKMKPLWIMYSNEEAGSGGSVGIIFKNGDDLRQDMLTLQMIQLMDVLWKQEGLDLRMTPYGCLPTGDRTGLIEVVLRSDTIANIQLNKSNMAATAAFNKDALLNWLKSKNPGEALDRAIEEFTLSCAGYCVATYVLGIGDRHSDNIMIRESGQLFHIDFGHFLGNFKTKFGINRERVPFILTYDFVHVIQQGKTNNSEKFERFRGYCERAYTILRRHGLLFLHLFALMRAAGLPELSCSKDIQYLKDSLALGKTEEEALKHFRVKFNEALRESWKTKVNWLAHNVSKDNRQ
Sequence of Phosphatidylinositol 4,5-bisphosphate 3-kinase catalytic subunit beta isoform (P42338 whole entry, canonical isoform): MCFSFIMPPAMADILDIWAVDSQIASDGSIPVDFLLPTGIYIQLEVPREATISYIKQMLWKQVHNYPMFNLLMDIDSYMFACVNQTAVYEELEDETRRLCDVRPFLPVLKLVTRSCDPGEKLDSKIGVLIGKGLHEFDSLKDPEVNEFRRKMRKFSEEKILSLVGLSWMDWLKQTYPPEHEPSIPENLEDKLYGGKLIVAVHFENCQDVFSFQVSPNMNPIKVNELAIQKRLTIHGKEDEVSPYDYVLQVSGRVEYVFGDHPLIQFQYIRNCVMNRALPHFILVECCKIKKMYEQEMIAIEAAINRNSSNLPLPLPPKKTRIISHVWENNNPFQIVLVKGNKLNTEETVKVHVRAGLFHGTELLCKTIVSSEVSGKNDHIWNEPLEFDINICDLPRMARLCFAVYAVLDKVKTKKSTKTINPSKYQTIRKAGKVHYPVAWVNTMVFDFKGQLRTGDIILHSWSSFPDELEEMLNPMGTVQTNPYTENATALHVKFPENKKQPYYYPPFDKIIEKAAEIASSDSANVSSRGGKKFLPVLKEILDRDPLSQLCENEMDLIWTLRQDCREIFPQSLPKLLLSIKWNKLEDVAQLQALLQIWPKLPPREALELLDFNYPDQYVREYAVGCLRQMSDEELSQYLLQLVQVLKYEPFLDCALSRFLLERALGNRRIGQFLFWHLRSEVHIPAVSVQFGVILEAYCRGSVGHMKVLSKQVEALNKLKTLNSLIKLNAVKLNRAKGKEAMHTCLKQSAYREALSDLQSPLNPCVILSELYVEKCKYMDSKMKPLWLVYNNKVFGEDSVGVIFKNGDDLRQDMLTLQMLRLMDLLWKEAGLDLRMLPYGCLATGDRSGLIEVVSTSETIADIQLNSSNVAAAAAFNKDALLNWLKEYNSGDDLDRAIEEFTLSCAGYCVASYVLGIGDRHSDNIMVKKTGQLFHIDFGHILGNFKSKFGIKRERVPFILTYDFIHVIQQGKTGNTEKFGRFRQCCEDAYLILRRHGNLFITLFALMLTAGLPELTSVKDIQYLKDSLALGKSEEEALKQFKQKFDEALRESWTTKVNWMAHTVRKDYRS
Sequence of Phosphatidylinositol 4,5-bisphosphate 3-kinase catalytic subunit gamma isoform (P48736 whole entry, canonical isoform): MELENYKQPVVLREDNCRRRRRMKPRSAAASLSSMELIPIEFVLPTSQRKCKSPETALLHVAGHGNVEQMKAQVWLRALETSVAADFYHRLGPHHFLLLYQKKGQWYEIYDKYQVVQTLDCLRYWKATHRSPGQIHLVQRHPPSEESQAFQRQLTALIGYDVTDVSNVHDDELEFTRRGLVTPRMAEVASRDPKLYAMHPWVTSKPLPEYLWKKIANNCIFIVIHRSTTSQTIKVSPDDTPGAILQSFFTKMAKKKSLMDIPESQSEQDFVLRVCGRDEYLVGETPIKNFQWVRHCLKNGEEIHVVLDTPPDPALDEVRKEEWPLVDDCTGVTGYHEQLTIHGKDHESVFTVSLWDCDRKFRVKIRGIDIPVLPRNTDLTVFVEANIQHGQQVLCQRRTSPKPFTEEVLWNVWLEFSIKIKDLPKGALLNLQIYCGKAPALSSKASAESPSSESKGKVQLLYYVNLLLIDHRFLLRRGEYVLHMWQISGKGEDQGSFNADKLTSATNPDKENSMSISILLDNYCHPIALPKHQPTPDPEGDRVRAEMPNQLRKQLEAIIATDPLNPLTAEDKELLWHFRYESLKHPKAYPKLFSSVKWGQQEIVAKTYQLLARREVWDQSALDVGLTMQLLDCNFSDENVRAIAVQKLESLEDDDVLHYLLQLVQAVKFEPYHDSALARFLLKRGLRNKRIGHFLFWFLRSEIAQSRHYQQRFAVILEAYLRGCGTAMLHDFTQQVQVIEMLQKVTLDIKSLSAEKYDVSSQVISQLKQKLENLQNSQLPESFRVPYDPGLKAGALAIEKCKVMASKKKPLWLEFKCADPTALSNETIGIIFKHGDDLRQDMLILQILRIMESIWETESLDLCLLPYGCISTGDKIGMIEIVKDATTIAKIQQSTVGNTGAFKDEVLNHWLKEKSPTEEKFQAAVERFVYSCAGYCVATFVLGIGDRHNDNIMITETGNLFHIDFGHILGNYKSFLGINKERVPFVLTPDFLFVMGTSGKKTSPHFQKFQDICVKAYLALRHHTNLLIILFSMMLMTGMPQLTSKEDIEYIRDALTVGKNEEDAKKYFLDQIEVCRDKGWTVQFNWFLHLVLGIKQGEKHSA

Usually IC50 stands for the midpoint of a concentration-inhibition curve. Take `c1cc2c(N3CCOCC3)nc(N3CCOCC3)nc2[nH]1`: the IC50 in assay [1] was 6180 nM; in [2], > 2000 nM.
For the molecule `CS(=O)(=O)N1CCN(Cc2cc3nc(-c4cccc5[nH]ncc45)nc(N4CCOCC4)c3s2)CC1`, the TGI entry with SK-OV-3 [3] and in the assay with U-87 MG [4] was “inactive” in each case.
Turning to `C[C@@H]1CN(c2nc(N3CCOCC3)c3sc(-c4cccc5[nH]ncc45)cc3n2)C[C@H](C)O1`, the IC50 in assay [1] was > 10000 nM; in [2], > 2000 nM.
Take `OCc1cc2nc(N3CCOc4ccccc43)nc(N3CCOCC3)c2s1`: the IC50 was 681 nM in assay [1]; 336 nM in [2]; 2670 nM with PC-3; 1820 nM in the assay on LNCaP; 21200 nM with U-87 MG [5]; 2890 nM in the assay on SK-OV-3 [6].
Take `OCc1cc2nc(N3CCOCC3)nc(N3CCOCC3)c2s1`: the IC50 was 216 nM in [1]; > 2000 nM in assay [2]; 6000 nM in the assay on PC-3; 2060 nM in the assay on LNCaP; 17500 nM in the assay with U-87 MG [5]; 8240 nM with SK-OV-3 [6].
With `CC(O)c1cc2nc(N3C[C@@H](C)O[C@@H](C)C3)nc(N3CCOCC3)c2s1` (stereo not given in full), the IC50 in [1] amounted to 122 nM; in [2], 632 nM; with PC-3, 1380 nM; in the assay on LNCaP, 2590 nM; in the assay on U-87 MG [5], 3290 nM; in the assay on SK-OV-3 [6] it was 1220 nM.
Consider `C[C@@H]1CN(c2nc(N3CCOCC3)c3sc(-c4ccccc4O)cc3n2)C[C@H](C)O1`, for which the IC50 was > 10000 nM in [1]; 225 nM in [2]; 2490 nM with PC-3; 2380 nM in the assay with LNCaP; 9880 nM with U-87 MG [5]; 1800 nM in the assay with SK-OV-3 [6].
With `CN1CCN(c2nc(N3CCOCC3)c3sc(CO)cc3n2)CC1`, the IC50 was 1030 nM in [1] and > 2000 nM in assay [2].
As for `C[C@@H]1CN(c2nc(N3CCOCC3)c3sc(C(O)Cc4ccccc4)cc3n2)C[C@H](C)O1` (stereo not given in full), the IC50 was 2050 nM in assay [1] and > 2000 nM in assay [2].
As to `C[C@@H]1CN(c2nc(N3CCOCC3)c3sc(-c4ccncc4)cc3n2)C[C@H](C)O1`, the IC50 in [1] was > 10000 nM; in assay [2] it was > 2000 nM.
As for `C[C@@H]1CN(c2nc(N3CCOCC3)c3sc(-c4ccc[nH]4)cc3n2)C[C@H](C)O1`, the IC50 in [1] is 4180 nM; in assay [2], 172 nM; in the assay on PC-3, 3050 nM; in the assay with LNCaP, 2390 nM; with U-87 MG [5], > 25000 nM; in the assay with SK-OV-3 [6], 18900 nM.
As to `C[C@@H]1CN(c2nc(N3CCOCC3)c3sc(-c4ccnn4C)cc3n2)C[C@H](C)O1`, the results for the IC50 in assay [1] and in assay [2] were 1240 nM and > 2000 nM, respectively.
Turning to `OCc1cc2nc(N3CCSCC3)nc(N3CCOCC3)c2s1`, the IC50 was 249 nM in assay [1]; 603 nM in assay [2]; 2260 nM with PC-3; 4200 nM in the assay on LNCaP; > 25000 nM in the assay with U-87 MG [5]; 2180 nM in the assay with SK-OV-3 [6].
Turning to `C[C@@H]1CN(c2nc(N3CCOCC3)c3sc(-c4ccccn4)cc3n2)C[C@H](C)O1`, the IC50 in assay [1] was 694 nM; in assay [2], 270 nM; in the assay on PC-3 it was 2750 nM; in the assay with LNCaP, 4430 nM; in the assay on U-87 MG [5], 4450 nM; with SK-OV-3 [6], 990 nM.
As for `Cc1c(-c2ccn[nH]2)sc2c(N3CCOCC3)nc(N3C[C@@H](C)O[C@@H](C)C3)nc12`, the IC50 in assay [1] was 197 nM; in assay [2] it was 73 nM; in the assay with PC-3, 1740 nM; with LNCaP it was 1100 nM; in the assay with U-87 MG [5] it was 8760 nM; in the assay on SK-OV-3 [6], 830 nM.
As to `C[C@@H]1CN(c2nc(N3CCOCC3)c3sc(-c4cncnc4)cc3n2)C[C@H](C)O1`, the IC50 was 9470 nM in assay [1] and > 2000 nM in assay [2].
`C[C@@H]1CN(c2nc(N3CCOCC3)c3sc(-c4ccc(N)nc4)cc3n2)C[C@H](C)O1`: the IC50 in [1] was 165 nM; in assay [2] it was 70 nM; with PC-3, 7000 nM; in the assay with LNCaP, 1130 nM; in the assay with U-87 MG [5] it was > 25000 nM; in the assay on SK-OV-3 [6], 2900 nM.
For the molecule `C[C@@H]1COCCN1c1nc(N2CCOCC2)c2sc(CO)cc2n1`, the IC50 in assay [1] was 299 nM; in [2] it was 335 nM; in the assay on PC-3, 1320 nM; in the assay with LNCaP, 2630 nM; with U-87 MG [5], > 25000 nM; in the assay on SK-OV-3 [6], 2170 nM.
In the case of `c1cc2nc(N3CCOCC3)nc(N3CCOCC3)c2s1`, the values for the IC50 in assay [1] and in assay [2] were 1870 nM and > 2000 nM, respectively.
For `C[C@@H]1CN(c2nc(N3CCOCC3)c3sc(-c4ccccc4)cc3n2)C[C@H](C)O1` the same measures were > 10000 nM and > 2000 nM.
Consider `CS(=O)(=O)N1CCN(Cc2cc3nc(N4CCOCC4)nc(N4CCOCC4)c3s2)CC1`, for which the results for the IC50 in assay [1] and in assay [2] were 4820 nM and > 2000 nM, respectively.
As for `O=C(O)c1cc2nc(N3CCOCC3)nc(N3CCOCC3)c2s1`, the IC50 in [1] was 237 nM; in assay [2] it was > 2000 nM; with PC-3, > 25000 nM; in the assay with LNCaP it was 23600 nM; in the assay with U-87 MG [5], 2440 nM; in the assay with SK-OV-3 [6], > 25000 nM.
For the molecule `COc1ccc(-c2cc3nc(N4C[C@@H](C)O[C@@H](C)C4)nc(N4CCOCC4)c3s2)cn1`, the IC50 in [1] was > 10000 nM; in assay [2], > 2000 nM.
On to `C[C@@H]1CN(c2nc(N3CCOCC3)c3sc(-c4cn[nH]c4)cc3n2)C[C@H](C)O1`, for which the IC50 in assay [1] was 995 nM; in assay [2], 427 nM; in the assay with PC-3 it was > 25000 nM; in the assay on LNCaP, 4050 nM; in the assay with U-87 MG [5], > 25000 nM; with SK-OV-3 [6] it was 10100 nM.
For the molecule `CS(=O)(=O)N1CCN(c2nc(N3CCOCC3)c3sc(CO)cc3n2)CC1`, the IC50 was 279 nM in [1]; > 2000 nM in assay [2]; 15000 nM in the assay on PC-3; 6160 nM in the assay with LNCaP; > 25000 nM with U-87 MG [5]; 23300 nM in the assay with SK-OV-3 [6].
Regarding `C[C@@H]1CN(c2nc(N3CCOCC3)c3sc(-c4ccsc4)cc3n2)C[C@H](C)O1`, the IC50 in assay [1] was > 10000 nM; in [2], > 2000 nM.
On to `C[C@@H]1CN(c2nc(N3CCOCC3)c3sc(-c4cccnc4)cc3n2)C[C@H](C)O1`, for which the IC50 was 281 nM in assay [1]; 612 nM in assay [2]; 12800 nM with PC-3; 3000 nM with LNCaP; > 25000 nM in the assay with U-87 MG [5]; 15700 nM in the assay with SK-OV-3 [6].
For `C[C@@H]1CN(c2nc(N3CCOCC3)c3sc(CO)cc3n2)C[C@H](C)O1`, the IC50 in assay [1] worked out at 216 nM; in assay [2], 463 nM; in the assay on PC-3, 1050 nM; in the assay with LNCaP it was 1780 nM; in the assay on U-87 MG [5], 6590 nM; in the assay with SK-OV-3 [6] it was 4990 nM.
On to `c1nc2c(N3CCOCC3)nc(N3CCOCC3)nc2[nH]1`, for which the IC50 in assay [1] is > 10000 nM; in assay [2], > 2000 nM.
For `C[C@@H]1CN(c2nc(N3CCOCC3)c3sc(-c4cnn(C)c4)cc3n2)C[C@H](C)O1`, the IC50 in [1] is 4950 nM; in assay [2], > 2000 nM.
Regarding `C[C@@H]1CN(c2nc(N3CCOCC3)c3sc(C(N)=O)cc3n2)C[C@H](C)O1`, the IC50 was 191 nM in [1]; 865 nM in assay [2]; 4320 nM in the assay on PC-3; 3270 nM in the assay on LNCaP; > 25000 nM with U-87 MG [5]; 7110 nM with SK-OV-3 [6].
On to `C[C@@H]1CN(c2nc(N3CCOCC3)c3sc(-c4ccco4)cc3n2)C[C@H](C)O1`, for which the IC50 in assay [1] was 2200 nM; in assay [2] it was 109 nM; with PC-3, > 25000 nM; with LNCaP, 2640 nM; in the assay on U-87 MG [5], 12800 nM; in the assay with SK-OV-3 [6], 5910 nM.
As to `CCC(O)c1cc2nc(N3C[C@@H](C)O[C@@H](C)C3)nc(N3CCOCC3)c2s1` (stereo not given in full), the IC50 in assay [1] is 239 nM; in assay [2], > 2000 nM; with PC-3 it was 2970 nM; with LNCaP, 1600 nM; in the assay with U-87 MG [5], > 25000 nM; in the assay on SK-OV-3 [6], 9120 nM.
For the molecule `C[C@@H]1CN(c2nc(N3CCOCC3)c3sc(-c4cnc(N)nc4)cc3n2)C[C@H](C)O1`, the half-inhibitory concentration (IC50) in assay [1] is 24 nM; in assay [2], 424 nM; in [7] it was 35 nM; in the assay on PC-3, 3670 nM; in the assay with LNCaP it was 4530 nM; with U-87 MG [5] it was > 25000 nM. The IC50 in the assay with SK-OV-3 [6] was found to be 10000 nM; in [8], 317 nM; in [9], 171 nM.
As for `C[C@@H]1CN(c2nc(N3CCOCC3)c3sc(-c4ccoc4)cc3n2)C[C@H](C)O1`, the IC50 in assay [1] was 3560 nM; in assay [2], 222 nM; in the assay with PC-3, 5920 nM; with LNCaP, 6770 nM; with U-87 MG [5] it was > 25000 nM; in the assay with SK-OV-3 [6], 21800 nM.
Take `CC(=O)c1cc2nc(N3CCOCC3)nc(N3CCOCC3)c2s1`: the IC50 in assay [1] is 675 nM; in [2] it was > 2000 nM.
